Data: PubChem BioAssay (NCI)
Values joined by “and” are separate entries in the source; they are usually repeats but may differ in a detail not shown here. Equal values may be shown once.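 These data come from cells grown in 96-well plates and exposed to compound for 48 hours at five concentrations. Here, GI50 denotes the concentration required for 50% inhibition of growth. The concentration for full growth arrest is given as TGI.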

Legend:
Test in all cases: NCI-60 cell line screen, 48 h
UACC-257 melanoma = system: UACC-257 melanoma
BT-549 breast = system: BT-549 breast
HOP-92 NSCLC = system: HOP-92 NSCLC
NCI-H23 lung = system: NCI-H23 lung
NCI-H226 lung = system: NCI-H226 lung
HCT-15 colon = system: HCT-15 colon
KM12 colon = system: KM12 colon
SK-MEL-28 melanoma = system: SK-MEL-28 melanoma
SF-295 CNS = system: SF-295 CNS
SN12C renal = system: SN12C renal
IGROV1 ovarian = system: IGROV1 ovarian
PC-3 prostate = system: PC-3 prostate
OVCAR-4 ovarian = system: OVCAR-4 ovarian
RXF 393 renal = system: RXF 393 renal
OVCAR-5 ovarian = system: OVCAR-5 ovarian
EKVX NSCLC = system: EKVX NSCLC
DU-145 prostate = system: DU-145 prostate
CAKI-1 renal = system: CAKI-1 renal
U251 CNS = system: U251 CNS
HCT-116 colon = system: HCT-116 colon
SK-MEL-5 melanoma = system: SK-MEL-5 melanoma
M14 melanoma = system: M14 melanoma
HT29 colon = system: HT29 colon
SF-539 CNS = system: SF-539 CNS
OVCAR-3 ovarian = system: OVCAR-3 ovarian
UO-31 renal = system: UO-31 renal
OVCAR-8 ovarian = system: OVCAR-8 ovarian
A549 NSCLC = system: A549 NSCLC
MDA-MB-435 = system: MDA-MB-435
SNB-75 CNS = system: SNB-75 CNS
SW-620 colon = system: SW-620 colon
NCI/ADR-RES ovarian = system: NCI/ADR-RES ovarian
SNB-19 CNS = system: SNB-19 CNS
MDA-MB-231 breast = system: MDA-MB-231 breast
TK-10 renal = system: TK-10 renal
SF-268 CNS = system: SF-268 CNS
ACHN renal = system: ACHN renal
COLO 205 colon = system: COLO 205 colon
HL-60(TB) leukemia = system: HL-60(TB) leukemia
SK-MEL-2 melanoma = system: SK-MEL-2 melanoma
786-0 renal = system: 786-0 renal
HCC-2998 colon = system: HCC-2998 colon
SK-OV-3 ovarian = system: SK-OV-3 ovarian
A498 renal = system: A498 renal
MALME-3M melanoma = system: MALME-3M melanoma
NCI-H460 lung = system: NCI-H460 lung
CCRF-CEM leukemia = system: CCRF-CEM leukemia
NCI-H522 lung = system: NCI-H522 lung
UACC-62 melanoma = system: UACC-62 melanoma
RPMI-8226 leukemia = system: RPMI-8226 leukemia

**Q.** With `COc1ccc(CC2C(=O)NC(C)C(=O)N(C)C3C(=O)N(C)C(Cc4ccc(O)c(c4)Oc4ccc(cc4)C3O)C(=O)NC(C)C(=O)NC(C)C(=O)N2C)cc1` (configuration not stated) (tested in a mixture with another compound) as the molecule, how does the TGI (UACC-257 melanoma) read?
**A.** 0.101 µM and 0.0278 µM

**Q.** What about the TGI (BT-549 breast) of the same molecule?
**A.** 0.00992 µM

**Q.** And the TGI (HOP-92 NSCLC)?
**A.** 0.0372 µM

**Q.** What about the TGI (NCI-H23 lung) of the same molecule?
**A.** 0.051 µM

**Q.** What about the TGI (NCI-H226 lung) of the same molecule?
**A.** 0.117 µM

**Q.** Which results are given for `CCC1(c2ccc(N3C(=O)c4ccccc4C3=O)cc2)CCC(=O)NC1=O` (configuration not stated)?
**A.** TGI (HCT-15 colon): > 10 µM; TGI (KM12 colon): > 10 µM; TGI (SK-MEL-28 melanoma): > 10 µM; TGI (SF-295 CNS): > 10 µM; TGI (SN12C renal): > 10 µM; TGI (IGROV1 ovarian): > 10 µM; TGI (PC-3 prostate): > 10 µM; TGI (OVCAR-4 ovarian): > 10 µM; TGI (RXF 393 renal): > 10 µM; TGI (HOP-92 NSCLC): > 10 µM; TGI (OVCAR-5 ovarian): > 10 µM; TGI (EKVX NSCLC): > 10 µM; TGI (DU-145 prostate): > 10 µM; TGI (CAKI-1 renal): > 10 µM; TGI (U251 CNS): > 10 µM; TGI (HCT-116 colon): > 10 µM; TGI (SK-MEL-5 melanoma): > 10 µM; TGI (NCI-H23 lung): > 10 µM; TGI (NCI-H226 lung): > 10 µM; TGI (M14 melanoma): > 10 µM; TGI (HT29 colon): > 10 µM; TGI (SF-539 CNS): > 10 µM; TGI (OVCAR-3 ovarian): > 10 µM; TGI (UO-31 renal): > 10 µM; TGI (OVCAR-8 ovarian): > 10 µM; TGI (A549 NSCLC): > 10 µM; TGI (MDA-MB-435): > 10 µM; TGI (SNB-75 CNS): > 10 µM; TGI (SW-620 colon): > 10 µM; TGI (NCI/ADR-RES ovarian): > 10 µM; TGI (SNB-19 CNS): > 10 µM; TGI (MDA-MB-231 breast): > 10 µM; TGI (TK-10 renal): > 10 µM; TGI (SF-268 CNS): > 10 µM; TGI (ACHN renal): > 10 µM; TGI (COLO 205 colon): > 10 µM

**Q.** For `O=c1c2cc(F)ccc2sc2c(Nc3ccncc3)nc3ccccc3c12`, which GI50 (HCT-15 colon) is on record?
**A.** 1.65 µM

**Q.** What about the TGI (HCT-15 colon) of the same molecule?
**A.** 3.32 µM

**Q.** And the GI50 (HL-60(TB) leukemia)?
**A.** 13.7 µM

**Q.** And the TGI (HL-60(TB) leukemia)?
**A.** 39.8 µM

**Q.** And the GI50 (KM12 colon)?
**A.** 1.87 µM

**Q.** And the TGI (KM12 colon)?
**A.** 3.93 µM

**Q.** What about the GI50 (SK-MEL-28 melanoma) of the same molecule?
**A.** 1.99 µM

**Q.** And the TGI (SK-MEL-28 melanoma)?
**A.** 3.84 µM

**Q.** What about the GI50 (SK-MEL-2 melanoma) of the same molecule?
**A.** 11.2 µM

**Q.** And the TGI (SK-MEL-2 melanoma)?
**A.** 26.5 µM

**Q.** And the GI50 (SF-295 CNS)?
**A.** 4.12 µM

**Q.** What about the TGI (SF-295 CNS) of the same molecule?
**A.** 26.7 µM

**Q.** What about the GI50 (SN12C renal) of the same molecule?
**A.** 2.16 µM

**Q.** And the TGI (SN12C renal)?
**A.** 5.93 µM

**Q.** What about the GI50 (IGROV1 ovarian) of the same molecule?
**A.** 1.55 µM

**Q.** And the TGI (IGROV1 ovarian)?
**A.** 5.55 µM

**Q.** And the GI50 (UACC-257 melanoma)?
**A.** 2.34 µM

**Q.** And the TGI (UACC-257 melanoma)?
**A.** 6.17 µM

**Q.** And the GI50 (BT-549 breast)?
**A.** 3.31 µM

**Q.** What about the TGI (BT-549 breast) of the same molecule?
**A.** 16.7 µM

**Q.** And the GI50 (OVCAR-4 ovarian)?
**A.** 1.7 µM

**Q.** And the TGI (OVCAR-4 ovarian)?
**A.** 3.53 µM

**Q.** What about the GI50 (RXF 393 renal) of the same molecule?
**A.** 1.7 µM

**Q.** What about the TGI (RXF 393 renal) of the same molecule?
**A.** 3.41 µM

**Q.** And the GI50 (OVCAR-5 ovarian)?
**A.** 1.66 µM

**Q.** What about the TGI (OVCAR-5 ovarian) of the same molecule?
**A.** 3.11 µM

**Q.** What about the GI50 (786-0 renal) of the same molecule?
**A.** 1.76 µM

**Q.** What about the TGI (786-0 renal) of the same molecule?
**A.** 3.39 µM

**Q.** What about the GI50 (HCC-2998 colon) of the same molecule?
**A.** 2.67 µM

**Q.** What about the TGI (HCC-2998 colon) of the same molecule?
**A.** 7.97 µM

**Q.** What about the GI50 (DU-145 prostate) of the same molecule?
**A.** 2.49 µM

**Q.** And the TGI (DU-145 prostate)?
**A.** 6.27 µM

**Q.** And the GI50 (CAKI-1 renal)?
**A.** 1.53 µM

**Q.** What about the TGI (CAKI-1 renal) of the same molecule?
**A.** 3.84 µM

**Q.** What about the GI50 (HCT-116 colon) of the same molecule?
**A.** 1.45 µM

**Q.** And the TGI (HCT-116 colon)?
**A.** 3.13 µM

**Q.** And the GI50 (SK-OV-3 ovarian)?
**A.** 14.2 µM

**Q.** What about the TGI (SK-OV-3 ovarian) of the same molecule?
**A.** 34.4 µM

**Q.** What about the GI50 (SK-MEL-5 melanoma) of the same molecule?
**A.** 7.29 µM

**Q.** And the TGI (SK-MEL-5 melanoma)?
**A.** 28.2 µM

**Q.** And the GI50 (A498 renal)?
**A.** 1.04 µM

**Q.** What about the TGI (A498 renal) of the same molecule?
**A.** 2.64 µM

**Q.** What about the GI50 (NCI-H23 lung) of the same molecule?
**A.** 1.71 µM

**Q.** What about the TGI (NCI-H23 lung) of the same molecule?
**A.** 3.8 µM

**Q.** What about the GI50 (MALME-3M melanoma) of the same molecule?
**A.** 1.74 µM

**Q.** What about the TGI (MALME-3M melanoma) of the same molecule?
**A.** 3.42 µM

**Q.** What about the GI50 (NCI-H226 lung) of the same molecule?
**A.** 14.5 µM

**Q.** What about the TGI (NCI-H226 lung) of the same molecule?
**A.** 47.8 µM

**Q.** What about the GI50 (M14 melanoma) of the same molecule?
**A.** 1.57 µM

**Q.** What about the TGI (M14 melanoma) of the same molecule?
**A.** 3.01 µM

**Q.** What about the GI50 (HT29 colon) of the same molecule?
**A.** 1.88 µM

**Q.** What about the TGI (HT29 colon) of the same molecule?
**A.** 3.73 µM

**Q.** What about the GI50 (NCI-H460 lung) of the same molecule?
**A.** 1.77 µM

**Q.** What about the TGI (NCI-H460 lung) of the same molecule?
**A.** 3.62 µM

**Q.** And the GI50 (SF-539 CNS)?
**A.** 1.72 µM

**Q.** What about the TGI (SF-539 CNS) of the same molecule?
**A.** 3.29 µM

**Q.** And the GI50 (OVCAR-3 ovarian)?
**A.** 1.84 µM

**Q.** What about the TGI (OVCAR-3 ovarian) of the same molecule?
**A.** 3.88 µM

**Q.** What about the GI50 (CCRF-CEM leukemia) of the same molecule?
**A.** 0.86 µM

**Q.** And the TGI (CCRF-CEM leukemia)?
**A.** 2.92 µM

**Q.** And the GI50 (UO-31 renal)?
**A.** 1.11 µM

**Q.** And the TGI (UO-31 renal)?
**A.** 2.5 µM

**Q.** And the GI50 (OVCAR-8 ovarian)?
**A.** 1.78 µM

**Q.** And the TGI (OVCAR-8 ovarian)?
**A.** 4.25 µM

**Q.** And the GI50 (NCI-H522 lung)?
**A.** 1.91 µM

**Q.** What about the TGI (NCI-H522 lung) of the same molecule?
**A.** 4.82 µM

**Q.** What about the GI50 (UACC-62 melanoma) of the same molecule?
**A.** 1.79 µM

**Q.** What about the TGI (UACC-62 melanoma) of the same molecule?
**A.** 3.74 µM

**Q.** What about the GI50 (MDA-MB-435) of the same molecule?
**A.** 1.9 µM

**Q.** What about the TGI (MDA-MB-435) of the same molecule?
**A.** 3.67 µM

**Q.** And the GI50 (SNB-75 CNS)?
**A.** 1.1 µM

**Q.** What about the TGI (SNB-75 CNS) of the same molecule?
**A.** 3.64 µM

**Q.** And the GI50 (RPMI-8226 leukemia)?
**A.** 1.75 µM

**Q.** What about the TGI (RPMI-8226 leukemia) of the same molecule?
**A.** 4.43 µM

**Q.** What about the GI50 (SW-620 colon) of the same molecule?
**A.** 1.5 µM

**Q.** And the TGI (SW-620 colon)?
**A.** 3.16 µM

**Q.** And the GI50 (NCI/ADR-RES ovarian)?
**A.** 1.94 µM

**Q.** And the TGI (NCI/ADR-RES ovarian)?
**A.** 4.47 µM

**Q.** What about the GI50 (MDA-MB-231 breast) of the same molecule?
**A.** 1.3 µM

**Q.** And the TGI (MDA-MB-231 breast)?
**A.** 2.67 µM

**Q.** What about the GI50 (SF-268 CNS) of the same molecule?
**A.** 1.91 µM

**Q.** And the TGI (SF-268 CNS)?
**A.** 4.56 µM

**Q.** And the GI50 (ACHN renal)?
**A.** 1.55 µM

**Q.** What about the TGI (ACHN renal) of the same molecule?
**A.** 3.13 µM

**Q.** What about the GI50 (COLO 205 colon) of the same molecule?
**A.** 1.7 µM

**Q.** What about the TGI (COLO 205 colon) of the same molecule?
**A.** 3.94 µM
